From US11033604B2, “Reagents and methods for treating bacterial infection” (priority 2018, dated 2021) come the findings set out here.

Non-standard residues stand in square brackets, D forms with d. No end group written: not given here.

One experiment has as its system synthetic PSMα1. The experiment is described as follows: PSMα1 fibrillization assay with added inhibitors (ThT). Type of experiment: biochemical, Staphylococcus aureus. As to the method: FIG. 5. Aggregation of synthetic PSMα1 is inhibited by designed α-sheet peptides. (A) Synthetic PSMα1 peptide (30 μM, <1% DMSO, pH 5.5) was allowed to aggregate alone and in the presence of AP90 (1:4 molar ratio), RC (1:4 molar ratio), or AP407 (1:3 molar ratio). Two different solvent conditions were used (water+<1% DMSO; LB medium+<1% DMSO) and aggregation was monitored by ThT fluorescence. Inhibition values for each peptide are reported as a percentage of the peptide-free control samples (0% inhibition). (B) ThT fluorescence curves monitored the aggregation kinetics of PSMα1 under two different solvent conditions (water+<1% DMSO, black circles; LB medium+<1% DMSO, white circles). Fluorescence values in (B) are averages of 3-6 samples, with error bars to represent the standard deviation of the mean.
Designed α-sheet peptides inhibit amyloid formation through selective binding After establishing the structural transitions required to form amyloid in PSMα1, we examined the effect of the designed α-sheet peptides on the aggregation of PSMα1 in vitro. The designed peptide inhibitors were co-incubated with freshly prepared samples of synthetic PSMα1 (30 μM) and aggregation was monitored by ThT, as described above. To ensure sample homogeneity and removal of any amyloid “seeds” prior to aggregation, the synthetic PSMα1 peptide was treated with DMSO and then diluted into filtered water. […]

The test system of another experiment is S. aureus MN8 biofilms. The experiment is described as follows: ThT fluorescence assay of amyloid formation in S. aureus MN8 biofilm cultures. Type of experiment: cell-based, Staphylococcus aureus. To be noted: MN8 and SH1000 WT strains, particularly MN8; 24 h, 37° C. The procedure: We developed a novel protocol to identify amyloid fibril formation during biofilm development in two S. aureus strains—SH1000 WT, a rsbU^+ laboratory strain^27, and MN8, a clinical strain isolated from the human urogenital tract (Table 1). After 24 hours of batch growth in microtiter plates, biofilms were washed and incubated with Thioflavin T (ThT), and the resulting fluorescence signals served as a proxy for the extent of PSM fibril formation in the EM (FIG. 1A). Next, we utilized this assay to test α-sheet amyloid inhibitor designs and control peptides (sequences provided in Table 2) in batch biofilm cultures. The first inhibitor used is AP90 (Alternating Peptide #90, referred to as α1 previously^25,26). […] The AP401 and AP407 designs display similar spectral features by CD, except that AP401 has a positive signal in the random coil region (FIG. 7). AP401 has the same sequence as AP90 but with reversed chirality in the strands and turn, thus the D-amino acids give rise to an approximate mirror image CD spectrum relative to AP90. AP407 is a variant of AP90 with a disulfide bond. An unstructured random coil peptide (RC) and a β-hairpin (β) are used as structural controls.
Designed and control peptides were added to the growth medium prior to inoculation, and biofilms were allowed to grow for 24 hours at 37° C. Planktonic cells were removed and the remaining biofilms were assayed for amyloid content using ThT. […] The disulfide-linked peptide design, AP407, reduced the amyloid fibril formation by 46% and 56% in the MN8 and SH1000 WT strains, respectively. In contrast, the random coil and β-sheet control peptides were ineffective.
Overnight cultures of S. aureus (see Table 1 for a list of strains used in this study) were spun down and re-suspended in fresh Luria-Bertani (LB) media to an optical density of 0.1 (600 nm). These cultures were then mixed with reconstituted peptide (or water, in the case of controls) and aliquoted in quadruplicate into wells of a clear 48-well plate (Corning, TC-treated polystyrene). The final concentration of peptide in each well was 80 μM, unless otherwise noted. Plates were covered and biofilms were grown at 37° C. for 24 hours with gentle rocking. At this time, medium and planktonic cells were removed from wells using a vacuum and the remaining adherent biofilms were rinsed once with PBS (BupH™, Thermo Scientific). Thioflavin T (ThT), an established fluorescent label for amyloid fibrils^40, was then added to each well at a concentration of 22 μM and biofilms were incubated statically for 4 hours at room temperature. The solution was then removed from the wells and PBS was added with vigorous pipetting to detach biofilms from the plate surface. Plates were shaken at high speed for 1 minute on a plate shaker to detach any remaining biofilm material and homogenize the samples. The detached biofilm suspensions were transferred to a 96-well black-walled plate (Corning, TC-treated polystyrene) and ThT fluorescence was read at 438/495 nm on a Perkin-Elmer Enspire™ plate reader. Fluorescence measurements were corrected by subtracting the background intensity of identical samples without ThT. For calculation of live:dead cell ratios, biofilm suspensions were prepared as described above and cells were stained with a 1:1 mixture of Syto9 and propidium iodide (LIVE/DEAD BacLight™ Bacterial Viability Kit, Thermo Scientific). After 15 minutes of incubation at room temperature, fluorescence ratios of the two dyes were determined using a Perkin-Elmer Enspire™ plate reader.

In experiment [1] the test system is Staphylococcus epidermidis (SE). The experiment is described as follows: Crystal violet biofilm assay. Type of experiment: cell-based. The text has this: (§1) Furthermore, these same inhibitors are active against EC, SE, and SM.
The subject of experiment [2] is Streptococcus mutans (SM). Put plainly: Crystal violet biofilm assay. It counts as cell-based.
Excerpt: as §1

A further experiment deals with Escherichia coli (EC). The experiment is described as follows: Crystal violet biofilm assay. Type of experiment: cell-based.
Excerpt: as §1

The subject of experiment [3] is Pseudomonas aeruginosa (PA). Put plainly: Crystal violet biofilm assay. Type of experiment: cell-based.
Excerpt: as §1

Experiment [4] concerns P. aeruginosa PAO1 pFap biofilms. Put plainly: In situ ThT assay of Fap amyloid in P. aeruginosa biofilms. To be noted: LB medium, 37° C., 48 h. Type of experiment: cell-based. The text has this:
FIG. 15. Action of synthetic α-sheet peptides in the P. aeruginosa system. […] Error bars indicate standard deviation of the mean of at least three replicates. Significance values are p<0.05: *, p<0.01: **, p<0.001: ***.
The strain used in these experiments is a fap-overexpressing mutant of P. aeruginosa PAO1 WT called PAO1 pFap. The overexpression is generated by cloning the entire fap operon into a host expression vector, which is then transformed into PAO1 WT. […] For in situ assays, overnight cultures from a single colony of freshly transformed PAO1 pFap were used to inoculate 96 well plates in the presence of synthetic α-sheet peptides in LB medium. As a control, biofilms of the deletion strain PAO1 Δfap were grown under the same conditions. Plates were covered and incubated at 37° C. for 48 h. After incubation, planktonic cells and media were gently removed from the biofilms by pipetting. The biofilms were rinsed once with PBS prior to staining with 20 μM ThT. Stained biofilms were resuspended by pipetting and sonication, and the fluorescence of ThT was measured at 448/485 nm in a plate reader.

A further experiment concerns SA. The experiment is described as follows: Crystal violet biofilm assay. Type of experiment: cell-based, Staphylococcus aureus.
Excerpt: as §1

On to “KLKpLLTSENTL (KLK[dP]LLTSENTL) [RC, unstructured random coil peptide used as structural control]”, for which the “Inhibition of PSMα1 fibril formation” value in the experiment on synthetic PSMα1 (30 μM PSMα1, LB medium + <1% DMSO, 1:4 molar ratio) is recorded as “did not significantly influence amyloid formation”. The “Inhibition of PSMα1 amyloid formation” value in the experiment on synthetic PSMα1 (30 μM PSMα1, water + <1% DMSO, 1:4 molar ratio (excess peptide)) is on record as “little effect”. Also, the “Effect on amyloid fibril formation in S. aureus biofilms (ThT fluorescence, FIG. 1B)” value (“Effect on amyloid fibril formation” for short) in the experiment on S. aureus MN8 biofilms was “ineffective”.
Take “RGNwNeSkMNEYSGWmLmLtMGR (RGN[dW]N[dE]S[dK]MNEYSGW[dM]L[dM]L[dT]MGR) [AP5]”: the “Activity against biofilm-forming bacteria (crystal violet)” value (in experiment [1]; in experiment [2]; with Escherichia coli (EC)) was “active” each time. Also, the “Biofilm inhibition (crystal violet, FIG. 10)” value (in experiment [3]; in the experiment with SA) was “inhibition” in each case. For the same substance, the “Amyloid formation in biofilms (ThT)” value in experiment [4] was “significantly inhibit amyloid formation”.
On to “SWTWEpNKWTWK (H-SWTWE[dP]NKWTWK-NH2; SMILES C[C@@H](O)[C@H](NC(=O)[C@H](Cc1c[nH]c2ccccc12)NC(=O)[C@H](CCCCN)NC(=O)[C@H](CC(N)=O)NC(=O)[C@H]1CCCN1C(=O)[C@H](CCC(=O)O)NC(=O)[C@H](Cc1c[nH]c2ccccc12)NC(=O)[C@@H](NC(=O)[C@H](Cc1c[nH]c2ccccc12)NC(=O)[C@@H](N)CO)[C@@H](C)O)C(=O)N[C@@H](Cc1c[nH]c2ccccc12)C(=O)N[C@@H](CCCCN)C(N)=O) [β, β-hairpin structural control peptide, reference compound]”, for which, in the experiment with S. aureus MN8 biofilms, the “Effect on amyloid fibril formation” value is listed as “ineffective”.
For the substance “rGeMnLsWmneysGwTmNlKmGr (Ac-[dR]G[dE]M[dN]L[dS]W[dM][dN][dE][dY][dS]G[dW]T[dM]N[dL]K[dM]G[dR]-NH2; SMILES CSCC[C@H](NC(=O)[C@@H](CCC(=O)O)NC(=O)CNC(=O)[C@@H](CCCNC(=N)N)NC(C)=O)C(=O)N[C@H](CC(N)=O)C(=O)N[C@@H](CC(C)C)C(=O)N[C@H](CO)C(=O)N[C@@H](Cc1c[nH]c2ccccc12)C(=O)N[C@H](CCSC)C(=O)N[C@H](CC(N)=O)C(=O)N[C@H](CCC(=O)O)C(=O)N[C@H](Cc1ccc(O)cc1)C(=O)N[C@H](CO)C(=O)NCC(=O)N[C@H](Cc1c[nH]c2ccccc12)C(=O)N[C@H](C(=O)N[C@H](CCSC)C(=O)N[C@@H](CC(N)=O)C(=O)N[C@H](CC(C)C)C(=O)N[C@@H](CCCCN)C(=O)N[C@H](CCSC)C(=O)NCC(=O)N[C@H](CCCNC(=N)N)C(N)=O)[C@@H](C)O) [AP401]”, the “Effect on amyloid fibril formation” value in the experiment with S. aureus MN8 biofilms was “significant reduction in amyloid fibril formation”.
